Laboratory results: patent US4880777A, “Synthetic peptides having growth hormone releasing activity” (Eastman Kodak Company, priority 1987, dated 1989)
Several values for one entry are separate records, joined by “and”; a condition that tells them apart may be missing. Identical values can stand only once. Where a SMILES comes first, the peptide text is derived from it. Bridges are numbered along the chain shown (N, C = ends). [ ]: non-standard residue; d: D form. Nle = CCCC[C@H](N)C(=O)O

Legend:
growth hormone (GH) [1] = test: In vivo GH release in rats (serum GH by RIA, 10 minutes after i.v. injection); parameters: species or system Sprague-Dawley rats; settings: for GH Release: immature female rats, serum GH 10 minutes after injection, mean ± SEM; for potency compared with Compound A (in words) / release of growth hormone when administered to rats via i.v. injection (in words): rats, i.v. injection
Procedure: (§1) Immature female Sprague-Dawley rats were obtained from the Charles River Laboratories (Wilmington, Mass.). After arrival they were housed at 25° C. with 14:10 hour light:dark cycle. Water and Purina rat choow were availablle ad libitum. Pups were kept with their mothers until 21 days of age.
(§2) Normal saline with 0.1% gelatin was the vehicle for s.c. and i.v. injections of Compounds 1 and 2 . The unanesthetized rats, weighing 55-65 grams, were injected i.v. with 0.2 ml solution via the tail vein. All animals were sacrificed by quillotine 10 minutes after the final test injection unless specified otherwise. Trunk blood for growth hormone (GH) determinations was collected following decapitation. The blood was allowed to clot, centrifuged and the serum separated from the clot. Serum was kept frozen until the day of sampling for radioimmunoassay (RIA) of growth hormone levels according to the following procedure, as developed by the National Institute of Arthritis, Diabetes and Digestive and Kidney Diseases (NIADDK).
Reagents are generally added to the RIA analysis tubes at a single sitting, at refrigerator temperature (about 4° C.) in the following sequence:
(b) "cold" (i.e., non-radioactive) standard or unknown serum sample to be analyzed,
(c) radio-iodinated growth hormone antigen, and
(d) growth hormone antiserum.
Reagent addition is generally carried out so that there is achieved a final RIA tube dilution in the range of about 1:10,000 up to 1:500,000 (antiserum to total liquid volume; vol:vol).
(§3) The mixed reagents are then typically incubated at room temperature (about 25° C.) for about 24 hours prior to addition of a second antibody (e.g., goat or rabbit anti-monkey gamma globulin serum) which binds to and cause precipitation of the complexed growth hormone antiserum. Precipitated contents of the RIA tubes are then analyzed for the number of counts in a specified period of time in a gamma scintillation counter. A standard curve is prepared by plotting number of radioactive counts as a function of growth hormone (GH) level. GH levels of unknowns are then determined by reference to the standard curve.
(§4) Serum GH was measured by RIA with reagents provided by the National Hormone and Pituitary Program. Serum levels are recorded in ng/ml in terms of the rat GH standard with 0.61 IU/mg. Data is recorded as the mean ± standard error of the mean (SEM). Statistical analysis was performed with student's t-test.

growth hormone (GH) [2] = test: In vivo synergistic effects on GH release in rats of combinations with Compound B (Group 3) and Compound C (Group 2); settings: for synergism with Group 3 Compound B (in words): combination with Compound B (Tyr-DArg-Phe-Gly-NH2)
Procedure: as §1, §2, §3, §4
Compound 1 and Compound 2 of Examples 1 and 2, respectively, were each combined with the Group 2 and/or Group 3 polypeptides identified in Table 4 below and in the proprotions shown. The combinations were then tested for GH release in rats by the same procedure set forth in Example 3.

[3] = dose 10 of Column A compound combined with 30 μg Compound B
[4] = dose 30 of Column A compound combined with 30 μg Compound B

| Structure (SMILES) | GH Release (growth hormone (GH) [1]; 10 μg i.v.) [ng/mL] | GH Release (growth hormone (GH) [1]; 30 μg i.v.) [ng/mL] | GH Release (growth hormone (GH) [1]; 100 μg i.v.) [ng/mL] | potency compared with Compound A (in words) (growth hormone (GH) [1]) | release of growth hormone when administered to rats via i.v. injection (in words) (growth hormone (GH) [1]) | synergism with Group 3 Compound B (in words) (growth hormone (GH) [2]) | GH Release by Compound in Column A (growth hormone (GH) [2]; dose 10, compound alone) | GH Release of Compound in Column A & 30 μg Compound B (growth hormone (GH) [2]; [3]) | GH Release of Compound in Column A & 30 μg Compound B & 10 μg Compound C (growth hormone (GH) [2]; dose 10 of Column A compound combined with 30 μg Compound B and 10 μg Compound C) [ng/mL] | GH Release by Compound in Column A (growth hormone (GH) [2]; dose 30, compound alone) [ng/mL] | GH Release of Compound in Column A & 30 μg Compound B (growth hormone (GH) [2]; [4]) [ng/mL] | GH Release by Compound in Column A (growth hormone (GH) [2]; dose 100, compound alone) [ng/mL] | GH Release of Compound in Column A & 30 μg Compound B (growth hormone (GH) [2]; dose 100 of Column A compound combined with 30 μg Compound B) [ng/mL] | GH Release (growth hormone (GH) [1]; 3 μg i.v.) [ng/mL] | GH Release by Compound in Column A (growth hormone (GH) [2]; dose 3, compound alone) [ng/mL] | GH Release of Compound in Column A & 30 μg Compound B (growth hormone (GH) [2]; dose 3 of Column A compound combined with 30 μg Compound B) [ng/mL] |
| --- | --- | --- | --- | --- | --- | --- | --- | --- | --- | --- | --- | --- | --- | --- | --- | --- |
| CCCC[C@H](NC(=O)[C@@H](NC(=O)[C@H](CC(=O)O)NC(=O)[C@H](CCC(N)=O)NC(=O)[C@H](CC(C)C)NC(=O)[C@H](CC(C)C)NC(=O)[C@H](CCCCN)NC(=O)[C@H](CCCNC(=N)N)NC(=O)[C@H](C)NC(=O)[C@H](CO)NC(=O)[C@H](CC(C)C)NC(=O)[C@H](CCC(N)=O)NC(=O)[C@H](CS)NC(=O)[C@H](CC(C)C)NC(=O)[C@@H](NC(=O)[C@H](CCCCN)NC(=O)[C@H](CCCNC(=N)N)NC(=O)[C@H](Cc1ccc(O)cc1)NC(=O)[C@H](CS)NC(=O)[C@H](CC(N)=O)NC(=O)[C@@H](NC(=O)[C@H](Cc1ccccc1)NC(=O)[C@@H](NC(=O)[C@H](C)NC(=O)[C@H](CC(=O)O)NC(=O)[C@H](C)NC(=O)[C@@H](N)Cc1ccc(O)cc1)[C@@H](C)CC)[C@@H](C)O)C(C)C)[C@@H](C)CC)C(=O)N[C@@H](CO)C(=O)N[C@@H](CCCNC(=N)N)C(N)=O [Compound 1] (H-YADAIFTNCYRKVLCQLSARKLLQDI[Nle]SR-NH2) | 145 ± 41 | 151 ± 33 | 374 ± 94 | potencies similar to Compound A | highly active | act synergistically | 145 ± 41 ng/mL and 77 ± 10 ng/mL | 3314 ± 275 ng/mL and 2078 ± 395 ng/mL | 4947 ± 366 | 151 ± 33 | 2875 ± 472 | 374 ± 94 | 2328 ± 297 |  |  |  |
| CCCC[C@H](NC(=O)[C@@H](NC(=O)[C@H](CC(=O)O)NC(=O)[C@H](CCC(N)=O)NC(=O)[C@H](CC(C)C)NC(=O)[C@H](CC(C)C)NC(=O)[C@H](CCCCN)NC(=O)[C@H](CCCNC(=N)N)NC(=O)[C@H](C)NC(=O)[C@H](CO)NC(=O)[C@H](CC(C)C)NC(=O)[C@H](CCC(N)=O)NC(=O)[C@@H]1CSSC[C@H](NC(=O)[C@H](CC(N)=O)NC(=O)[C@@H](NC(=O)[C@H](Cc2ccccc2)NC(=O)[C@@H](NC(=O)[C@H](C)NC(=O)[C@H](CC(=O)O)NC(=O)[C@H](C)NC(=O)[C@@H](N)Cc2ccc(O)cc2)[C@@H](C)CC)[C@@H](C)O)C(=O)N[C@@H](Cc2ccc(O)cc2)C(=O)N[C@@H](CCCNC(=N)N)C(=O)N[C@@H](CCCCN)C(=O)N[C@@H](C(C)C)C(=O)N[C@@H](CC(C)C)C(=O)N1)[C@@H](C)CC)C(=O)N[C@@H](CO)C(=O)N[C@@H](CCCNC(=N)N)C(N)=O [Compound 2] (H-YADAIFTNCYRKVLCQLSARKLLQDI[Nle]SR-NH2; disulfide 9-15) | 99 ± 11 | 132 ± 24 |  | potencies similar to Compound A | highly active | act synergistically | 99 ± 11 ng/mL and 105 ± 29 ng/mL | 3733 ± 515 ng/mL and 2241 ± 323 ng/mL |  | 132 ± 24 | 2652 ± 560 |  |  | 62 ± 8 | 62 ± 8 | 1689 ± 264 |
